System: P. aeruginosa ATCC BAA-3107 (SEN) and P. aeruginosa LESB58 (MDR)
Assay: Adaptive laboratory evolution (ALE), relative MIC of evolved lines
Assay type: cell-based, Pseudomonas aeruginosa
Description: Using the same set of bacterial strains, we initiated adaptive laboratory evolution with the aim to maximize the level of antibiotic resistance in the populations achieved during a longer, but fixed time period.
An established protocol for adaptive laboratory evolution[46],[73] was followed to propagate populations with the highest resistance levels. Starting with an antibiotic concentration that caused approximately 50% growth inhibition, ten parallel populations for each antibiotic-ancestor strain combination were grown for 72 hours at 37 °C with continuous shaking (300 RPM). MHB broth medium was used unless stated otherwise. After each incubation, 20 µl of each culture was transferred to four new wells containing fresh medium with increasing antibiotic concentrations (0.5×, 1×, 1.5×, and 2.5× the previous concentration) in a chessboard layout to monitor potential cross-contamination. Growth was monitored by measuring OD600 using a Biotek Synergy 2 microplate reader, and only populations grown in the highest drug concentration with an OD600 > 0.2 were transferred further.
A robotic liquid handling system was used to automatically prepare a 11 to 16-step serial dilution in 384-well microtiter plates (Greiner). A final concentration of 5 × 10^5 bacterial cells per mL were inoculated into each well containing 60 µL MHB medium. Bacterial cultures were incubated at 37 °C with continuous shaking (Infors shaker, 900 rpm with 3 mm throw) for 18 hours (2 replicates from each). Cell growth was monitored by measuring the optical density (OD600 values, using Biotek Synergy microplate reader). MIC was defined as the antibiotic concentration of complete growth inhibition (i.e., OD600 < 0.05). Relative MIC was calculated as follows:1 relativeMIC=MICevolved/MICancestor […]
Supplementary Figure 4. Resistance levels following adaptive laboratory evolution across bacterial strains. The level of resistance was measured as the fold change in relative MIC between evolved and ancestral strains after ~60 days of adaptive laboratory evolution. Data are grouped by bacterial strain (A. baumannii (AB), E. coli (EC), K. pneumoniae (KP), and P. aeruginosa (PA)) and categorized as either multidrug-resistant (MDR) or sensitive (SEN). Each data point represents a laboratory evolved line, and boxplots show the median, first and third quartiles, with whiskers indicating the 5th and 95th percentiles.
Statistical analysis was performed using two-sided Dunn’s post-hoc test with Benjamini-Hochberg correction for multiple comparisons (****/ ***/ **/ * indicates p < 0.0001/ 0.001/ 0.01/ 0.05). For detailed information on antibiotic and bacterial species, see Supplementary Table 1. For mode of action groups, refer to Table 1. Source data are provided as a Source Data file.

[1] = PA-SEN (ATCC BAA 3107), evolved line 2
[2] = PA-SEN (ATCC BAA 3107), evolved line 3
[3] = PA-SEN (ATCC BAA 3107), evolved line 4
[4] = PA-SEN (ATCC BAA 3107), evolved line 6
[5] = PA-SEN (ATCC BAA 3107), evolved line 7
[6] = PA-SEN (ATCC BAA 3107), evolved line 8
[7] = PA-SEN (ATCC BAA 3107), evolved line 9
[8] = PA-SEN (ATCC BAA 3107), evolved line 10

Compound: Nc1nc(-n2cc(C(=O)O)c(=O)c3cc(F)c(N4CC(O)C4)c(Cl)c32)c(F)cc1F [Delafloxacin]
- Relative MIC (PA-MDR (LESB 58), evolved line 1, MIC of evolved line / MIC of ancestor): 64
- Relative MIC (PA-MDR (LESB 58), evolved line 2, MIC of evolved line / MIC of ancestor): 64
- Relative MIC (PA-MDR (LESB 58), evolved line 3, MIC of evolved line / MIC of ancestor): 64
- MIC of evolved line (PA-MDR (LESB 58), evolved line 4): 128 µg/mL
- Relative MIC (PA-MDR (LESB 58), evolved line 4, MIC of evolved line / MIC of ancestor): 64
- MIC of evolved line (PA-MDR (LESB 58), evolved line 5): 128 µg/mL
- Relative MIC (PA-MDR (LESB 58), evolved line 5, MIC of evolved line / MIC of ancestor): 64
- MIC of evolved line (PA-MDR (LESB 58), evolved line 6): 64 µg/mL
- Relative MIC (PA-MDR (LESB 58), evolved line 6, MIC of evolved line / MIC of ancestor): 32
- MIC of evolved line (PA-MDR (LESB 58), evolved line 7): 128 µg/mL
- Relative MIC (PA-MDR (LESB 58), evolved line 7, MIC of evolved line / MIC of ancestor): 64
- MIC of evolved line (PA-MDR (LESB 58), evolved line 8): 128 µg/mL
- Relative MIC (PA-MDR (LESB 58), evolved line 8, MIC of evolved line / MIC of ancestor): 64
- MIC of evolved line (PA-MDR (LESB 58), evolved line 9): 128 µg/mL
- Relative MIC (PA-MDR (LESB 58), evolved line 9, MIC of evolved line / MIC of ancestor): 64
- MIC of evolved line (PA-MDR (LESB 58), evolved line 10): 64 µg/mL
- Relative MIC (PA-MDR (LESB 58), evolved line 10, MIC of evolved line / MIC of ancestor): 32
- Relative MIC (log10) (PA-MDR (Pseudomonas aeruginosa LESB 58), evolved line 2 adapted to the named antibiotic): 1.806
- Relative MIC (log10) (PA-MDR (Pseudomonas aeruginosa LESB 58), evolved line 4 adapted to the named antibiotic): 1.806
- Relative MIC (log10) (PA-MDR (Pseudomonas aeruginosa LESB 58), evolved line 6 adapted to the named antibiotic): 1.505
- Relative MIC (log10) (PA-MDR (Pseudomonas aeruginosa LESB 58), evolved line 7 adapted to the named antibiotic): 1.806
- Relative MIC (log10) (PA-MDR (Pseudomonas aeruginosa LESB 58), evolved line 9 adapted to the named antibiotic): 1.806
- MIC of evolved line (PA-MDR LESB 58, evolved line 1): 128 µg/mL
- MIC of evolved line (PA-MDR LESB 58, evolved line 2): 128 µg/mL
- MIC of evolved line (PA-MDR LESB 58, evolved line 3): 128 µg/mL
- MIC of evolved line [1]: 32 µg/mL
- Relative MIC (PA-SEN (ATCC BAA 3107), evolved line 2, MIC of evolved line / MIC of ancestor): 2048
- MIC of evolved line [2]: 64 µg/mL
- Relative MIC (PA-SEN (ATCC BAA 3107), evolved line 3, MIC of evolved line / MIC of ancestor): 4096
- MIC of evolved line [3]: 32 µg/mL
- Relative MIC (PA-SEN (ATCC BAA 3107), evolved line 4, MIC of evolved line / MIC of ancestor): 2048
- MIC of evolved line (PA-SEN (ATCC BAA 3107), evolved line 5): 32 µg/mL
- Relative MIC (PA-SEN (ATCC BAA 3107), evolved line 5, MIC of evolved line / MIC of ancestor): 2048
- MIC of evolved line [4]: 64 µg/mL
- Relative MIC (PA-SEN (ATCC BAA 3107), evolved line 6, MIC of evolved line / MIC of ancestor): 4096
- MIC of evolved line [5]: 32 µg/mL
- Relative MIC (PA-SEN (ATCC BAA 3107), evolved line 7, MIC of evolved line / MIC of ancestor): 2048
- MIC of evolved line [6]: 32 µg/mL
- Relative MIC (PA-SEN (ATCC BAA 3107), evolved line 8, MIC of evolved line / MIC of ancestor): 2048
- MIC of evolved line [7]: 32 µg/mL
- Relative MIC (PA-SEN (ATCC BAA 3107), evolved line 9, MIC of evolved line / MIC of ancestor): 2048
- MIC of evolved line [8]: 32 µg/mL
- Relative MIC (PA-SEN (ATCC BAA 3107), evolved line 10, MIC of evolved line / MIC of ancestor): 2048
- Relative MIC (log10) (PA-SEN (Pseudomonas aeruginosa ATCC BAA 3107), evolved line 2 adapted to the named antibiotic): 3.311
- Relative MIC (log10) (PA-SEN (Pseudomonas aeruginosa ATCC BAA 3107), evolved line 7 adapted to the named antibiotic): 3.311
- Relative MIC (log10) (PA-SEN (Pseudomonas aeruginosa ATCC BAA 3107), evolved line 8 adapted to the named antibiotic): 3.311
- Relative MIC (log10) (PA-SEN (Pseudomonas aeruginosa ATCC BAA 3107), evolved line 10 adapted to the named antibiotic): 3.311
- Relative MIC (Pseudomonas aeruginosa ATCC BAA 3107 (PA-SEN), evolved line 2): 2048
- Relative MIC (Pseudomonas aeruginosa ATCC BAA 3107 (PA-SEN), evolved line 3): 4096
- Relative MIC (Pseudomonas aeruginosa ATCC BAA 3107 (PA-SEN), evolved line 4): 2048
- Relative MIC (Pseudomonas aeruginosa ATCC BAA 3107 (PA-SEN), evolved line 5): 2048
- Relative MIC (Pseudomonas aeruginosa ATCC BAA 3107 (PA-SEN), evolved line 6): 4096
- Relative MIC (Pseudomonas aeruginosa ATCC BAA 3107 (PA-SEN), evolved line 7): 2048
- Relative MIC (Pseudomonas aeruginosa ATCC BAA 3107 (PA-SEN), evolved line 8): 2048
- Relative MIC (Pseudomonas aeruginosa ATCC BAA 3107 (PA-SEN), evolved line 9): 2048
- Relative MIC (Pseudomonas aeruginosa ATCC BAA 3107 (PA-SEN), evolved line 10): 2048
- Relative MIC (Pseudomonas aeruginosa LESB 58 (PA-MDR), evolved line 1): 64
- Relative MIC (Pseudomonas aeruginosa LESB 58 (PA-MDR), evolved line 2): 64
- Relative MIC (Pseudomonas aeruginosa LESB 58 (PA-MDR), evolved line 3): 64
- Relative MIC (Pseudomonas aeruginosa LESB 58 (PA-MDR), evolved line 4): 64
- Relative MIC (Pseudomonas aeruginosa LESB 58 (PA-MDR), evolved line 5): 64
- Relative MIC (Pseudomonas aeruginosa LESB 58 (PA-MDR), evolved line 6): 32
- Relative MIC (Pseudomonas aeruginosa LESB 58 (PA-MDR), evolved line 7): 64
- Relative MIC (Pseudomonas aeruginosa LESB 58 (PA-MDR), evolved line 8): 64
- Relative MIC (Pseudomonas aeruginosa LESB 58 (PA-MDR), evolved line 9): 64
- Relative MIC (Pseudomonas aeruginosa LESB 58 (PA-MDR), evolved line 10): 32

Compound: COc1c(N2C[C@@H]3CCCN[C@@H]3C2)c(F)cc2c(=O)c(C(=O)O)cn(C3CC3)c12 [Moxifloxacin]
- MIC of evolved line [1]: 256 µg/mL
- MIC of evolved line [2]: 512 µg/mL
- MIC of evolved line [3]: 128 µg/mL
- MIC of evolved line [4]: 512 µg/mL
- MIC of evolved line [5]: 256 µg/mL
- MIC of evolved line [6]: 512 µg/mL
- MIC of evolved line [7]: 256 µg/mL
- MIC of evolved line [8]: 128 µg/mL
- MIC of evolved line (PA-SEN ATCC BAA 3107, evolved line 1): 512 µg/mL

Compound: POL7306
- Relative MIC (ALE, Pseudomonas aeruginosa ATCC BAA 3107 (PA-SEN), evolved line 1): 2
- Relative MIC (ALE, Pseudomonas aeruginosa ATCC BAA 3107 (PA-SEN), evolved line 2): 2
- Relative MIC (ALE, Pseudomonas aeruginosa ATCC BAA 3107 (PA-SEN), evolved line 3): 2
- Relative MIC (ALE, Pseudomonas aeruginosa ATCC BAA 3107 (PA-SEN), evolved line 4): 2
- Relative MIC (ALE, Pseudomonas aeruginosa ATCC BAA 3107 (PA-SEN), evolved line 6): 2
- Relative MIC (ALE, Pseudomonas aeruginosa ATCC BAA 3107 (PA-SEN), evolved line 8): 2

Reference: PMC11845477, “Exploring the principles behind antibiotics with limited resistance” (Nature Communications, 2025)
